This note sets out measurements from EP4653444A1, “FUSED TRICYCLIC COMPOUND AS KINASE INHIBITOR” (Hangzhou Innogate Pharma Co., Ltd., priority 2023, dated 2024).

Like-named read-outs stand apart in the source and are kept apart here.

Series [1] in a line: Pharmacokinetic study in rats. The settings on record: rat, plasma, po, 3 mg/kg.
The target of series [2] is T1, FAK kinase (Homo sapiens, UniProt Q05397). Put plainly: FAK kinase activity inhibition assay, method A (HTRF). The following applies: Table 2; HTRF; ATP 10 µM; read-out: FAK (method A) (IC50). In kind it is biochemical. The procedure:
(§1) The HTRF method was used to evaluate the inhibitory activity of the compounds against FAK kinase. […]. The reaction conditions were: FAK kinase at 0.1 ng/µL; ATP 10 µM; substrate concentration 1 µM. Compounds were serially diluted in DMSO and shaken on a shaker for 20 minutes. Prepare 2× kinase using 1× reaction buffer. Transfer 25 nL compound to a 384-well plate using Echo 655. Add 2.5 µL kinase per well. Seal the plate with sealing film, centrifuge at 1000 rpm for 60 seconds, and incubate at 25°C for 12 hours. Prepare 2× ATP/substrate mix using 1× enzyme reaction buffer and add 2.5 µL 2× ATP/substrate mix per well. Seal the plate with sealing film, centrifuge at 1000 rpm for 60 seconds, and incubate at 25°C for 50 minutes. Prepare 2×XL665 & antibody solution using HTRF detection buffer, and add 5 µL per well. Incubate at 25°C for 60 minutes. Read fluorescence at 620 nm (Cryptate) and 665 nm (XL665). Calculate the ratio per well (Ratio_665/620 nm). % Inhibition = 100% - [(Compound Ratio - Positive Control Ratio)/ (Negative Control Ratio - Positive Control Ratio)] × 100%. IC50 values (half-maximal inhibitory concentration) were calculated by nonlinear regression using GraphPad Prism 7.0. Y = Bottom + (Top - Bottom)/ (1 + 10^ ((LogIC50 - X) × Hill Slope)), where X is the log of compound concentration and Y is the % inhibition.

The target in series [3] is T1, FAK kinase. Briefly: FAK kinase activity inhibition assay, method A (HTRF) and method B (Lantha screen). It is filed as biochemical. Here is the method:
as §1
The Lantha screen assay was used to evaluate the FAK kinase inhibitory activity. Compounds were dissolved in 100% DMSO at 10 mM stock concentration. Prepare 1× kinase buffer (25 mM HEPES, pH 7.5, 0.01 mM Triton, 0.5 mM EGTA, 0.01% Brij-35). Dilute compounds in a gradient, and transfer 5 µL compound into the reaction plate. Prepare 2× kinase solution with 1× Kinase buffer. Add 5 µL kinase solution to compound and positive control wells, and 5 µL 1× Kinase buffer to negative control wells. Mix reaction plate by shaking. Prepare 4× ATP/Fluorescein-polyGT substrate mix with 1× Kinase buffer. Add 2.5 µL substrate solution to initiate the reaction. Shake and incubate at room temperature for 30 minutes. Prepare 2× detection reagent (2 nM antibody, 10 mM EDTA) and add 10 µL per well to stop the reaction. Briefly centrifuge, mix, and incubate for 60 minutes. Read fluorescence at 340 nm excitation and 520 nm/495 nm emission using EnVision. Collect data and calculate 520 nm/495 nm ratio. Calculate the inhibition percentage using the formula: % Inhibition = (Max - Sample Ratio)/(Max - Min) × 100, where min is the mean of negative control wells (no enzyme activity), and max is the mean of positive control wells (DMSO-inhibited conversion rate).Use XLFit Excel add-in version 5.4.0.8 to determine the IC50 values of each compound against the enzyme activity: Y = Bottom + (Top - Bottom)/(1 + (IC50/X)^HillSlope).

A further series addresses T2, TNK1 kinase (Homo sapiens, UniProt Q13470).
T2 sequence (Q13470 1-666): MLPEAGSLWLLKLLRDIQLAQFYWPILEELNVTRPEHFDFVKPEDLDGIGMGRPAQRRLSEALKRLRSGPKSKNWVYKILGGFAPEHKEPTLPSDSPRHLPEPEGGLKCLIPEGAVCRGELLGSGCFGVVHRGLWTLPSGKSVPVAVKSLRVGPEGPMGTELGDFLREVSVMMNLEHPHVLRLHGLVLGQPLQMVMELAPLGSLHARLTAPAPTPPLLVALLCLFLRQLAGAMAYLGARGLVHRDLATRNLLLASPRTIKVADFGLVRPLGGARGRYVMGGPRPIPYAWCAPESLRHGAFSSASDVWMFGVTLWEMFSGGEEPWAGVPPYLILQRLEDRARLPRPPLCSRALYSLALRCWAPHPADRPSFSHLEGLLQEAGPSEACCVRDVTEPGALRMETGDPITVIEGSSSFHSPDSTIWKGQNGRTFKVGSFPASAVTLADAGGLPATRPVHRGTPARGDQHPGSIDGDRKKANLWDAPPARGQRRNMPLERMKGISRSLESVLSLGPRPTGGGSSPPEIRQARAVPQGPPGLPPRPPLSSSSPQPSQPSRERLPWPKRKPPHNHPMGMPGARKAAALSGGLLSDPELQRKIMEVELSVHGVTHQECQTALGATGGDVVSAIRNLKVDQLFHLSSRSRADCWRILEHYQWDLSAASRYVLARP
Briefly: TNK1 kinase activity inhibition assay (ADP-Glo). It is filed as biochemical. Here is the method: Measure compound inhibitory activity against TNK1 kinase using ADP-Glo Assay. 1× kinase reaction buffer was prepared (working concentrations: HEPES 50 mM, MgCl2 10 mM, Brij35 0.01%, EGTA 1 mM, DTT 2 mM). 2× kinase and 4× substrate buffers were prepared with the following working concentrations: For TNK1 kinase: kinase solution at 5 nM; substrate mixture containing ATP at 45 µM and MBP substrate at 0.1 mg/ mL. For ULK2 kinase: kinase solution at 0.15 nM; substrate mixture containing ATP at 6 µM and MBP substrate at 0.1 mg/mL. Compounds were serially diluted in DMSO and shaken on an orbital shaker for 20 minutes. 2× kinase solution was prepared using 1× kinase reaction buffer. 20 nL of compound solution was transferred to a 384-well plate. 2 µL of kinase solution was added to each well of the reaction plate. The plate was sealed with adhesive film, centrifuged at 1000 rpm for 60 seconds, and incubated at 25°C for 10 minutes. 2× ATP&MBP mixture was prepared using 1× kinase reaction buffer. 2 µL of 2× ATP&substrate mixture was added to the reaction plate. The plate was sealed with adhesive film, centrifuged at 1000 rpm for 60 seconds, and incubated at 25°C for 60 minutes. 4 µL of ADP-Glo reagent was transferred to the 384-well reaction plate, centrifuged at 1000 rpm for 1 minute, and incubated at 25°C for 40 minutes. 8 µL of Detection solution was transferred to the 384-well reaction plate, centrifuged at 1000 rpm for 1 minute, and incubated at 25°C for 40 minutes. Relative luminescence units (RLU) were measured using a BMG microplate reader, with signal intensity representing kinase activity level. The inhibition percentage was calculated as follows: % inhibition = 100% - [(Compound RLU - Positive Control RLU)/(Negative Control RLU - Positive Control RLU)] × 100%. The IC50 values (half-maximal inhibitory concentration) of compounds were determined by fitting the data to the following nonlinear regression equation using GraphPad Prism 7.0 software: Y = Bottom + (Top - Bottom)/(1 + 10^((LogIC50 - X) × Hill Slope)), where: X = log(compound concentration), Y = % inhibition. Table1: Inhibitory activity of compounds against ULK (IC50, nM)

[4] abbreviates: Table 4, read-out: FAK(method A and method B) (IC50).

T1 sequence (Q05397 whole entry): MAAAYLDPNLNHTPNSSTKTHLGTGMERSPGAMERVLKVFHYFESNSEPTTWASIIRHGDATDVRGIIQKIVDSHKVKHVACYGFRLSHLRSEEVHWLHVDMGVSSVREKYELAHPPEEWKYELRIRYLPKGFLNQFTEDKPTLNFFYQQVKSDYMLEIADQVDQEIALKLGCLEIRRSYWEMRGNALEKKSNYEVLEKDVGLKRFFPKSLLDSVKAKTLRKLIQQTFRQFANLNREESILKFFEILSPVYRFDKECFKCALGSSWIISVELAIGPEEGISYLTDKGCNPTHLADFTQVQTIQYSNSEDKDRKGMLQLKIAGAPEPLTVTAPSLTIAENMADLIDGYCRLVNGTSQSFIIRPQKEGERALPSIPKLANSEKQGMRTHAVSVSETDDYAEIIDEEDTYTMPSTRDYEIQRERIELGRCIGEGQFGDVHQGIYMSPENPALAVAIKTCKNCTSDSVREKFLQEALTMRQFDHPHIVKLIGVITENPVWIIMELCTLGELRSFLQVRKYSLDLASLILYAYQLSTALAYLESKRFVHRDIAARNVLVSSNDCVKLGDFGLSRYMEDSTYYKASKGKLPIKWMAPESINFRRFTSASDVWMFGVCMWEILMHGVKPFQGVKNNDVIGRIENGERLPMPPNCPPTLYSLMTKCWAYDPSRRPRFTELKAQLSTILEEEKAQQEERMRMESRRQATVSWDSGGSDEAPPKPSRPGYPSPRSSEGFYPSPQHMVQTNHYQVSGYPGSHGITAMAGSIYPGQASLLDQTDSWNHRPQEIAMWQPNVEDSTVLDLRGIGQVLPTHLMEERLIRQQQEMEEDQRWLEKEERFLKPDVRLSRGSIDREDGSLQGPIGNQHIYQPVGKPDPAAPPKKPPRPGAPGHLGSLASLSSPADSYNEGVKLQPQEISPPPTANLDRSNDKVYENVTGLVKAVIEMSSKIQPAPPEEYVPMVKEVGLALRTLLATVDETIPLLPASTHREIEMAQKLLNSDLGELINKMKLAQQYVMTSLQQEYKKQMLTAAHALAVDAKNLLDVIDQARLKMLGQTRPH

Take `CCc1cc2c(cc1Nc1ncc(C(F)(F)F)c(NCCCN3CCOCCC3=O)n1)OC[C@@H]1CN(C3CCN(C)CC3)CCN21` [Compound A2S]: in series [1], the AUC(0-t) at 24 h is 98 ng·h/mL, the maximum concentration (Cmax) was 11.8 ng/mL, the Tmax amounted to 1.17 h and the half-life is 7.05 h.

`COc1cc2c(cc1Nc1ncc(C(F)(F)F)c(CCc3ccccc3CC(N)=O)n1)OC[C@H]1CN(C)CCN21` [Compound B1R]: the IC50 at FAK kinase [2] was < 0.5 nM. Moreover, in series [1], the AUC(0-t) at 24 h was determined as 2330 ng·h/mL, the Cmax stood at 387 ng/mL, the Tmax was determined as 2.7 h and the half-life is 2.9 h.

Turning to `COc1cc2c(cc1Nc1ncc(C(F)(F)F)c(CCc3ccccc3CC(N)=O)n1)OC[C@H]1CN(C3CCNCC3)CCN21` [Compound B10R], the IC50 at FAK kinase [2] is < 0.5 nM.

As to `CC(C)Oc1cc2c(cc1Nc1ncc(Cl)c(Nc3ccccc3S(=O)(=O)C(C)C)n1)OC[C@@H]1CN(C3CCN(C)CC3)CCN21` [Compound C3S], at FAK kinase [3] (Table 3, read-out: FAK(method A and B) (IC50)), the IC50 is < 5 nM.

In the case of `CNC(=O)c1ccccc1Nc1cc(Nc2cc3c(cc2OC)N2CCN(C4CCOCC4)C[C@H]2CO3)ncc1C(F)(F)F` [Compound D1S], on FAK kinase [3], the IC50 is < 0.5 nM. In series [1], the AUC(0-t) at 24 h stood at 11000 ng·h/mL, the highest level (Cmax) was 2320 ng/mL, the Tmax was 1.67 h and the half-life was 2.63 h.

Consider `CNC(=O)c1ccccc1Nc1cc(Nc2cc3c(cc2OC)N2CCN(C4COC4)C[C@H]2CO3)ncc1C(F)(F)F` [Compound D3S], for which, at FAK kinase [3] (setting [4]), the IC50 is < 1 nM.

As to `CCOc1cc2c(cc1Nc1cc(Nc3ccccc3C(=O)NC)c(C(F)(F)F)cn1)OC[C@@H]1CN(C3CCN(C)CC3)CCN21` [Compound D5S], at FAK kinase [3] (setting [4]), the IC50 is < 1 nM.

As for `CNC(=O)c1ccccc1Nc1cc(Nc2cc3c(cc2OC(C)C)N2CCN(C4CCN(C)CC4)C[C@H]2CO3)ncc1C(F)(F)F` [Compound D6S], at FAK kinase [3], the IC50 is < 3 nM. In addition, in series [1], the exposure AUC(0-t) at 24 h is 675 ng·h/mL, the concentration peaked (Cmax) at 52.3 ng/mL, the Tmax came to 6.67 h and the half-life was 5.74 h.

Turning to `COc1cc2c(cc1Nc1ncc(Cl)c(Nc3cccnc3N3CCCC3=O)n1)OC[C@H]1CNCCN21` [Compound E1R], on TNK1 kinase, the IC50 is < 0.5 nM.

Consider `COc1cc2c(cc1Nc1ncc(Cl)c(Nc3cccnc3N3CCCC3=O)n1)OC[C@H]1CN(C)CCN21` [Compound E2R], for which the half-maximal inhibitory concentration (IC50) against TNK1 kinase was < 0.5 nM. Moreover, in series [1], the AUC(0-t) at 24 h came out at 332 ng·h/mL, the maximum concentration (Cmax) turned out to be 74.4 ng/mL, the Tmax was 1 h and the half-life is 2.07 h.

`COc1cc2c(cc1Nc1ncc(Cl)c(Nc3cccnc3N3CCCC3=O)n1)OC[C@H]1CN(C3CCN(C)CC3)CCN21` [Compound E3R]: the IC50 on TNK1 kinase (Table 5, ATP 45 µM, read-out: TNK1 (IC50)) is < 0.5 nM.

As to `COc1cc2c(cc1Nc1ncc(Cl)c(Nc3cccnc3N3CCCC3=O)n1)OC[C@H]1CN(C3CCOCC3)CCN21` [Compound E4R], at TNK1 kinase, the IC50 was < 0.5 nM. Further, in series [1], the exposure AUC(0-t) at 24 h is 83.9 ng·h/mL, the Cmax was found to be 69 ng/mL, the time to peak (Tmax) worked out at 0.5 h and the half-life was 0.99 h.

As to `COc1cc2c(cc1Nc1ncc(Cl)c(Nc3cccnc3N3CCCC3=O)n1)OC[C@H]1CN(C(C)=O)CCN21` [Compound E5R], the IC50 against TNK1 kinase is < 0.5 nM. In addition, in series [1], the AUC(0-t) at 24 h came to 1560 ng·h/mL, the peak level (Cmax) was 500 ng/mL, the Tmax amounted to 1 h and the half-life was 1.38 h.

In the case of `CCC(=O)N1CCN2c3cc(OC)c(Nc4ncc(Cl)c(Nc5cccnc5N5CCCC5=O)n4)cc3OC[C@H]2C1` [Compound E6R], on TNK1 kinase, the IC50 was < 1 nM. In series [1], the AUC(0-t) at 24 h turned out to be 581 ng·h/mL, the concentration peaked (Cmax) at 352 ng/mL, the Tmax stood at 0.5 h and the half-life was 1.05 h.

For the compound `COc1cc2c(cc1Nc1ncc(Cl)c(Nc3cccnc3N3CCCC3=O)n1)OC[C@H]1CN(C(=O)C3CC3)CCN21` [Compound E7R], the IC50 on TNK1 kinase was < 2 nM. Besides, in series [1], the AUC(0-t) at 24 h stood at 473 ng·h/mL, the highest level (Cmax) was 292 ng/mL, the time to peak (Tmax) came out at 0.5 h and the half-life was 1.08 h.

As to `COc1cc2c(cc1Nc1ncc(Cl)c(Nc3cccnc3N3CCCC3=O)n1)OC[C@H]1CN(C3CN(C)C3)CCN21` [Compound E8R], the IC50 against TNK1 kinase was < 2 nM. Moreover, in series [1], the area under the curve AUC(0-t) at 24 h was determined as 3170 ng·h/mL, the Cmax came to 411 ng/mL, the Tmax is 2 h and the half-life was 3.37 h.

Turning to `CCN1CCC(N2CCN3c4cc(OC)c(Nc5ncc(Cl)c(Nc6cccnc6N6CCCC6=O)n5)cc4OC[C@H]3C2)CC1` [Compound E9R], the IC50 against TNK1 kinase was < 1 nM. In series [1], the AUC(0-t) at 24 h is 1200 ng·h/mL, the peak level (Cmax) was 71.6 ng/mL, the Tmax stood at 9.33 h and the half-life was 14.5 h.

Take `COc1cc2c(cc1Nc1ncc(Cl)c(Nc3cccnc3N3CCCC3=O)n1)OC[C@H]1CN(C3CCN(C4CC4)CC3)CCN21` [Compound E10R]: on TNK1 kinase, the IC50 is < 0.5 nM. In series [1], the AUC(0-t) at 24 h is 2000 ng·h/mL, the highest level (Cmax) was 133 ng/mL, the Tmax was found to be 3.67 h and the half-life is 9.69 h.

With `COc1cc2c(cc1Nc1ncc(Cl)c(Nc3cccnc3N3CCCC3=O)n1)OC[C@H]1CN(C3CCN(C(C)=O)CC3)CCN21` [Compound E11R], the IC50 against TNK1 kinase was < 1 nM. In addition, in series [1], the AUC(0-t) at 24 h was 8110 ng·h/mL, the Cmax worked out at 1090 ng/mL, the Tmax turned out to be 1.33 h and the half-life is 4.36 h.
